In this assay the test system is IgE antibodies from patients. The experiment in a line: Wheat epitope mapping (2): overlapping 10-amino-acid peptide fragments shifted by one amino acid.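 As to Rank of partial sequence as epitope binding to IgE antibody: key = sequence deemed particularly important within the common 15-residue sequence.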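 As to epitope sequence binding to IgE antibody, rank (Key/Preferably/More preferably): key of grades: preferably = shorter partial sequence still acting as epitope; more preferably = sequence improving IgE binding; key = particularly important sequence.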 The assay is classed as binding, human. In short, it runs like this:
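Cellulose-bound 10-mer peptides offset by one residue were probed with patient serum IgE and detected by chemiluminescence. Secondary-antibody-only signals were subtracted per peptide. Residual binding was expressed as % of the parent overlapping peptide, scored as none (<30%), poor (30–<50%), somewhat poor (50–<70%) or retained (≥70%).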

Setting [1] is: serum of patient G4 (adult, general immediate type allergy to wheat).
[2] abbreviates: serum of patient P55 (child, general immediate type allergy to wheat), sequence without X.
Setting [3] is: serum of patient P8 (WDEIA), sequence without X.
The mark [4] stands for this setting: serum of patient P26 (WDEIA), sequence without X.
Setting [5] is: serum of patient P52 (child, general immediate type allergy to wheat), sequence without X.
Setting [6] is: serum of patient P21 (WDEIA), sequence without X.

Regarding “1407 (YLQPQQPISQ; REGION 1..10: note = epitope) [compound 1407]”, the “Epitope sequence binding to IgE antibody, rank of the sequence” value (serum of patient P3 (WDEIA), sequence without X) was “Preferably”. For “2531 (FQPSQLN; REGION 1..7: note = epitope) [compound 2531]”, the “Epitope sequence binding to IgE antibody, rank of the sequence” value (serum of patient G2 (adult, general immediate type allergy to wheat), partial sequence) was “Key”.

As to “1361 (NVEN; REGION 1..4: note = epitope) [compound 1361]”, for the setting “serum of patient P51 (child, general immediate type allergy to wheat), sequence without X”, the “Epitope sequence binding to IgE antibody, rank of the sequence” value was “Key”. Regarding “2697 (YKGPTL; REGION 1..6: note = epitope) [compound 2697]”, the “Epitope sequence binding to IgE antibody, rank of the sequence” value (serum of patient G6 (adult, general immediate type allergy to wheat), partial sequence) is given as “Key”. As to “2559 (LVQQLCC; REGION 1..7: note = epitope) [compound 2559]”, the “Epitope sequence binding to IgE antibody, rank of the sequence” value (serum of patient P21 (WDEIA), partial sequence) is “Key”. With “1226 (PIQQQP; REGION 1..6: note = epitope) [compound 1226]”, for the setting “serum of patient P12 (WDEIA), sequence without X”, the “Epitope sequence binding to IgE antibody, rank of the sequence” value is reported as “Key”. Take “1432 (SQQQAQ; REGION 1..6: note = epitope) [compound 1432]”: the “Rank of partial sequence as epitope binding to IgE antibody” value (from here on “Rank of partial sequence”) (serum of patient P15 (WDEIA), sequence without X) is reported as “Key”. On to “1927 (QFPGQQ; REGION 1..6: note = epitope) [compound 1927]”, for which the “epitope sequence binding to IgE antibody, rank (Key/Preferably/More preferably)” value (serum of patient P14 (WDEIA)) is on record as “Key”. Turning to “1796 (SGKELEALPK; REGION 1..10: note = epitope) [compound 1796]”, the “epitope sequence binding to IgE antibody, rank (Key/Preferably/More preferably)” value (serum of patient P15 (WDEIA)) is on record as “Preferably”.

Regarding “1782 (VSSYLKKVGY; REGION 1..10: note = epitope) [compound 1782]”, the “epitope sequence binding to IgE antibody, rank (Key/Preferably/More preferably)” value under setting [1] is recorded as “Key”. Turning to “1787 (KEVSSYLK; REGION 1..8: note = epitope) [compound 1787]”, the “epitope sequence binding to IgE antibody, rank (Key/Preferably/More preferably)” value (serum of patient G9 (adult, general immediate type allergy to wheat)) is reported as “Key”.

On to “1614 (YNPD; REGION 1..4: note = epitope) [compound 1614]”, for which, under “serum of patient P16 (WDEIA), sequence without X”, the “Rank of partial sequence” value is listed as “Key”. Consider “1419 (YLQPQQPIS; REGION 1..9: note = epitope) [compound 1419]”, for which the “Epitope sequence binding to IgE antibody, rank of the sequence” value (serum of patient P9 (WDEIA), sequence without X) is listed as “Key”. For “2258 (LRGIRNYRVA; REGION 1..10: note = epitope) [compound 2258]”, under setting [2], the “Epitope sequence binding to IgE antibody, rank of the sequence (Key/Preferably/More preferably)” value was “Preferably”.

Turning to “1176 (QQFPPQQ; REGION 1..7: note = epitope) [compound 1176]”, the “Epitope sequence binding to IgE antibody, rank of the sequence” value under setting [3] is recorded as “Preferably”. Take “2257 (SRLLRGIRN; REGION 1..9: note = epitope) [compound 2257]”: the “Epitope sequence binding to IgE antibody, rank of the sequence (Key/Preferably/More preferably)” value under setting [2] is on record as “Key”. In the case of “2677 (YKGPTL; REGION 1..6: note = epitope) [compound 2677]”, the “Epitope sequence binding to IgE antibody, rank of the sequence” value (serum of patient P12 (WDEIA), partial sequence) is recorded as “Key”. “2432 (QSTLKAWSGK; REGION 1..10: note = epitope) [compound 2432]”: the “Epitope sequence binding to IgE antibody, rank of the sequence (Key/Preferably/More preferably)” value under setting [4] is “More preferably”.

For the substance “2251 (SRLLRGIR; REGION 1..8: note = epitope) [compound 2251]”, the “Epitope sequence binding to IgE antibody, rank of the sequence (Key/Preferably/More preferably)” value under setting [5] was “Key”. Turning to “1945 (FPGQQ; REGION 1..5: note = epitope) [compound 1945]”, the “epitope sequence binding to IgE antibody, rank (Key/Preferably/More preferably)” value (serum of patient P22 (WDEIA)) was “Preferably”. Turning to “1743 (EAAN; REGION 1..4: note = epitope) [compound 1743]”, the “epitope sequence binding to IgE antibody, rank (Key/Preferably/More preferably)” value under setting [1] is on record as “Key”. Consider “2231 (IRNY; REGION 1..4: note = epitope) [compound 2231]”, for which the “Epitope sequence binding to IgE antibody, rank of the sequence (Key/Preferably/More preferably)” value (serum of patient P28 (WDEIA), sequence without X) is recorded as “Key”.

Take “2472 (SGKTENEE; REGION 1..8: note = epitope) [compound 2472]”: under setting [5], the “Epitope sequence binding to IgE antibody, rank of the sequence (Key/Preferably/More preferably)” value is given as “More preferably”. With “2579 (YQLVQQ; REGION 1..6: note = epitope) [compound 2579]”, the “Epitope sequence binding to IgE antibody, rank of the sequence” value (serum of patient P30 (WDEIA), partial sequence) is given as “Key”. In the case of “1820 (PKFLK; REGION 1..5: note = epitope) [compound 1820]”, the “epitope sequence binding to IgE antibody, rank (Key/Preferably/More preferably)” value (serum of patient P33 (WDEIA)) is “Key”. On to “1345 (NVEN; REGION 1..4: note = epitope) [compound 1345]”, for which the “Epitope sequence binding to IgE antibody, rank of the sequence” value (serum of patient P33 (WDEIA), sequence without X) is listed as “Key”. Take “1905 (VPLVQ; REGION 1..5: note = epitope) [compound 1905]”: the “epitope sequence binding to IgE antibody, rank (Key/Preferably/More preferably)” value (serum of patient P4 (WDEIA)) is listed as “Key”. Turning to “1883 (VRTLQ; REGION 1..5: note = epitope) [compound 1883]”, where the note is “serum of patient P34 (WDEIA)”, the “epitope sequence binding to IgE antibody, rank (Key/Preferably/More preferably)” value is “Key”. As to “1594 (QPQQPFP; REGION 1..7: note = epitope) [compound 1594]”, the “Rank of partial sequence” value under setting [5] is recorded as “Further preferably”.

On to “1485 (SQQQA; REGION 1..5: note = epitope) [compound 1485]”, for which the “Rank of partial sequence” value (serum of patient P34 (WDEIA), sequence without X) is listed as “Key”.

Regarding “1811 (ALPKFLKNG; REGION 1..9: note = epitope) [compound 1811]”, the “epitope sequence binding to IgE antibody, rank (Key/Preferably/More preferably)” value (serum of patient P26 (WDEIA)) was “Preferably”. Turning to “1732 (KEAA; REGION 1..4: note = epitope) [compound 1732]”, the “epitope sequence binding to IgE antibody, rank (Key/Preferably/More preferably)” value (serum of patient P53 (child, general immediate type allergy to wheat)) is “Key”. Consider “1518 (QVPLVQQ; REGION 1..7: note = epitope) [compound 1518]”, for which the “Rank of partial sequence” value (serum of patient P7 (WDEIA), sequence without X) was “Preferably”. As to “1416 (YLQPQQPIS; REGION 1..9: note = epitope) [compound 1416]”, the “Epitope sequence binding to IgE antibody, rank of the sequence” value under setting [3] is “Key”. As for “1463 (QQPISQQQAQ; REGION 1..10: note = epitope) [compound 1463]”, the “Rank of partial sequence” value (serum of patient P24 (WDEIA), sequence without X) is “Further preferably”. On to “2362 (VTEIV; REGION 1..5: note = epitope) [compound 2362]”, for which the “Epitope sequence binding to IgE antibody, rank of the sequence (Key/Preferably/More preferably)” value under setting [6] was “Key”.

In the case of “2314 (SRYDAIR; REGION 1..7: note = epitope) [compound 2314]”, the “Epitope sequence binding to IgE antibody, rank of the sequence (Key/Preferably/More preferably)” value (serum of patient P25 (WDEIA), sequence without X) is recorded as “Key”. Consider “2712 (YKIGG; REGION 1..5: note = epitope) [compound 2712]”, for which the “Epitope sequence binding to IgE antibody, rank of the sequence” value (serum of patient P17 (WDEIA), partial sequence) is reported as “Preferably”.

Regarding “1670 (YNPDKVPFV; REGION 1..9: note = epitope) [compound 1670]”, where the note is “serum of patient G4 (adult, general immediate type allergy to wheat), sequence without X”, the “Rank of partial sequence” value is listed as “Preferably”. For the substance “1189 (QQFPPQ; REGION 1..6: note = epitope) [compound 1189]”, the “Epitope sequence binding to IgE antibody, rank of the sequence” value under setting [6] is reported as “Key”.

As to “2679 (YKGPTL; REGION 1..6: note = epitope) [compound 2679]”, the “Epitope sequence binding to IgE antibody, rank of the sequence” value (serum of patient P14 (WDEIA), partial sequence) was “Key”.

In the case of “2660 (EMNKRSF; REGION 1..7: note = epitope) [compound 2660]”, for the setting “serum of patient P35 (WDEIA), partial sequence”, the “Epitope sequence binding to IgE antibody, rank of the sequence” value is “Key”.

For the substance “2237 (NYRV; REGION 1..4: note = epitope) [compound 2237]”, the “Epitope sequence binding to IgE antibody, rank of the sequence (Key/Preferably/More preferably)” value (serum of patient P30 (WDEIA), sequence without X) is on record as “Key”.

Turning to “2225 (VSRLLRGIRN; REGION 1..10: note = epitope) [compound 2225]”, the “Epitope sequence binding to IgE antibody, rank of the sequence (Key/Preferably/More preferably)” value (serum of patient P17 (WDEIA), sequence without X) is recorded as “Key”. “2584 (QLVQ; REGION 1..4: note = epitope) [compound 2584]”: the “Epitope sequence binding to IgE antibody, rank of the sequence” value (serum of patient P31 (WDEIA), partial sequence) was “Key”.

As to “1906 (QFPGQQQ; REGION 1..7: note = epitope) [compound 1906]”, where the note is “serum of patient P4 (WDEIA)”, the “epitope sequence binding to IgE antibody, rank (Key/Preferably/More preferably)” value is “Key”. “2285 (GIDK; REGION 1..4: note = epitope) [compound 2285]”: the “Epitope sequence binding to IgE antibody, rank of the sequence (Key/Preferably/More preferably)” value under setting [4] was “Key”. Consider “1859 (YTVRTLQR; REGION 1..8: note = epitope) [compound 1859]”, for which, where the note is “serum of patient P19 (WDEIA)”, the “epitope sequence binding to IgE antibody, rank (Key/Preferably/More preferably)” value is reported as “Preferably”.

Take “2280 (DKRVIERFEK; REGION 1..10: note = epitope) [compound 2280]”: the “Epitope sequence binding to IgE antibody, rank of the sequence (Key/Preferably/More preferably)” value (serum of patient P14 (WDEIA), sequence without X) is on record as “Preferably”. In the case of “1842 (TVRTLQ; REGION 1..6: note = epitope) [compound 1842]”, where the note is “serum of patient P8 (WDEIA)”, the “epitope sequence binding to IgE antibody, rank (Key/Preferably/More preferably)” value is listed as “Key”.

In the case of “1809 (ELEALPKFL; REGION 1..9: note = epitope) [compound 1809]”, the “epitope sequence binding to IgE antibody, rank (Key/Preferably/More preferably)” value (serum of patient P26 (WDEIA)) is given as “Preferably”.

On to “1246 (PQQPP; REGION 1..5: note = epitope) [compound 1246]”, for which the “Epitope sequence binding to IgE antibody, rank of the sequence” value (serum of patient P31 (WDEIA), sequence without X) is reported as “Key”. In the case of “1938 (QFPGQQ; REGION 1..6: note = epitope) [compound 1938]”, the “epitope sequence binding to IgE antibody, rank (Key/Preferably/More preferably)” value (serum of patient P19 (WDEIA)) is recorded as “Key”.

The values are drawn from patent publication US20240393292A1, “ALLERGY ANTIGEN AND EPITOPE THEREOF” (HOYU CO., LTD., priority 2019, published 2024).
